Tests used:
[1] = Reduction of viable cell numbers by 50% was evaluated by HepAD38 cellular assay; type: ADME, cell-based; details: human, HepAD38 cells; read-out: TC50 (the source's name)
Newcastle disease virus = test: Inhibition of Newcastles disease virus replication by 50% (no effect at this concentration); type: functional, organism-based; details: avian paramyxovirus 1
[2] = Inhibition of Duck HBV replication by 50% (no effect at this concentration); type: functional, organism-based; details: Anas sp.
[3] = test system: Human immunodeficiency virus 1; test: Inhibition of HIV-1 replication by 50% (no effect at this concentration); type: functional, organism-based
[4] = Inhibition of Woodchuck HBV replication by 50% (no effect at this concentration); type: functional, organism-based; details: Marmota monax
[5] = (§1) Inhibition of hepatitis B virus replication in the HepAD38 cell line.; type: functional, cell-based; details: Homo sapiens
Human alphaherpesvirus 1 = test: Inhibition of HSV-1 replication by 50% (no effect at this concentration); type: functional, organism-based
[6] = test system: Vesicular stomatitis virus; test: Inhibition of Vesicular stomatis virus replication by 50% (no effect at this concentration); type: functional, organism-based
[7] = Concentration which inhibits hepatitis B virus replication in the HepAD38 cell line.; type: functional; details: Homo sapiens
HepG2 [8] = test: as §1; type: functional, cell-based; details: Homo sapiens
HepG2 [9] = test: The concentration of compound which inhibits hepatitis B virus replication in the HepAD38 cell line.; details: Homo sapiens

## Cc1ccccc1/C(Br)=C(\NC(=O)c1ccccc1)C(=O)N1CCCCC1
[1]
  CC50: > 70 µM
Newcastle disease virus
  EC50: > 81 µM
[2]
  EC50: > 81 µM
[3]
  EC50: > 81 µM
[4]
  EC50: > 81 µM
[5]
  EC50: 0.89 µM
Human alphaherpesvirus 1
  EC50: > 81 µM
[6]
  EC50: > 81 µM

## O=C(N/C(C(=O)N1CCCCC1)=C(/Br)c1ccccc1)c1ccc(Br)cc1
[1]
  CC50: > 61 µM
Newcastle disease virus
  EC50: > 81 µM
[2]
  EC50: > 81 µM
[3]
  EC50: > 81 µM
[7]
  EC90: 3.7 µM
[4]
  EC50: > 81 µM
[5]
  EC50: 0.53 µM
Human alphaherpesvirus 1
  EC50: > 81 µM
[6]
  EC50: > 81 µM

## O=C(N/C(C(=O)N1CCCCC1)=C(/Br)c1ccc(Cl)cc1)c1ccc([N+](=O)[O-])cc1
[1]
  CC50: > 60 µM
Newcastle disease virus
  EC50: > 81 µM
[2]
  EC50: > 81 µM
[3]
  EC50: > 81 µM
[4]
  EC50: > 81 µM
[5]
  EC50: 1.6 µM
Human alphaherpesvirus 1
  EC50: > 81 µM
[6]
  EC50: > 81 µM

## COc1ccccc1/C(Br)=C(\NC(=O)c1ccccc1)C(=O)N1CCCCC1
[1]
  CC50: > 70 µM
Newcastle disease virus
  EC50: > 81 µM
[2]
  EC50: > 81 µM
[3]
  EC50: > 81 µM
[4]
  EC50: > 81 µM
[5]
  EC50: 2.1 µM
Human alphaherpesvirus 1
  EC50: > 81 µM
[6]
  EC50: > 81 µM

## Cc1ccc(/C(Br)=C(\NC(=O)c2ccccc2)C(=O)N2CCCCC2)cc1
[1]
  CC50: > 70 µM
Newcastle disease virus
  EC50: > 81 µM
[2]
  EC50: > 81 µM
[3]
  EC50: > 81 µM
[4]
  EC50: > 81 µM
[5]
  EC50: 2.8 µM
Human alphaherpesvirus 1
  EC50: > 81 µM
[6]
  EC50: > 81 µM

## O=C(N/C(C(=O)N1CCCC1)=C(/Cl)c1ccccc1)c1ccccc1
HepG2 [8]
  EC50: 5.6 µM

## O=C(N/C(C(=O)N1CCCCC1)=C(/Br)c1ccccc1)c1ccc([N+](=O)[O-])cc1
[1]
  CC50: > 65 µM
Newcastle disease virus
  EC50: > 81 µM
[2]
  EC50: > 81 µM
[3]
  EC50: > 81 µM
[7]
  EC90: 3 µM
[4]
  EC50: > 81 µM
[5]
  EC50: 0.35 µM
Human alphaherpesvirus 1
  EC50: > 81 µM
[6]
  EC50: > 81 µM

## COc1ccc(/C(Br)=C(\NC(=O)c2ccccc2)C(=O)N2CCCCC2)cc1
[1]
  CC50: > 67 µM
Newcastle disease virus
  EC50: > 81 µM
[2]
  EC50: > 81 µM
[3]
  EC50: > 81 µM
[4]
  EC50: > 81 µM
[5]
  EC50: 13 µM
Human alphaherpesvirus 1
  EC50: > 81 µM
[6]
  EC50: > 81 µM

## O=C(N/C(C(=O)N1CCCCC1)=C(/Br)c1ccccc1)c1ccc(F)cc1
[1]
  CC50: > 69 µM
Newcastle disease virus
  EC50: > 81 µM
[2]
  EC50: > 81 µM
[3]
  EC50: > 81 µM
[7]
  EC90: 4.4 µM
[4]
  EC50: > 81 µM
[5]
  EC50: 0.86 µM
Human alphaherpesvirus 1
  EC50: > 81 µM
[6]
  EC50: > 81 µM

## O=C(N/C(C(=O)N1CCCCC1)=C(/Br)c1ccc(F)cc1)c1ccc([N+](=O)[O-])cc1
[1]
  CC50: > 63 µM
Newcastle disease virus
  EC50: > 81 µM
[2]
  EC50: > 81 µM
[3]
  EC50: > 81 µM
[7]
  EC90: 11 µM
[4]
  EC50: > 81 µM
[5]
  EC50: 0.72 µM
Human alphaherpesvirus 1
  EC50: > 81 µM
[6]
  EC50: > 81 µM

## COc1ccc(C(=O)N/C(C(=O)N2CCCCC2)=C(/Cl)c2ccccc2)cc1
[1]
  CC50: > 75 µM
Newcastle disease virus
  EC50: > 81 µM
[2]
  EC50: > 81 µM
[3]
  EC50: > 81 µM
[4]
  EC50: > 81 µM
[5]
  EC50: 5.2 µM
Human alphaherpesvirus 1
  EC50: > 81 µM
[6]
  EC50: > 81 µM

## O=C(N/C(C(=O)N1CCOCC1)=C(/Cl)c1ccccc1)c1ccccc1
HepG2 [8]
  EC50: 7.3 µM

## COc1ccc(/C(Cl)=C(\NC(=O)c2ccccc2)C(=O)N2CCCCC2)cc1
[1]
  CC50: > 75 µM
Newcastle disease virus
  EC50: > 81 µM
[2]
  EC50: > 81 µM
[3]
  EC50: > 81 µM
[4]
  EC50: > 81 µM
[5]
  EC50: > 75 µM
Human alphaherpesvirus 1
  EC50: > 81 µM
[6]
  EC50: > 81 µM

## O=C(N/C(C(=O)N1CCCCC1)=C(/Cl)c1ccccc1)c1ccc(F)cc1
[1]
  CC50: > 67 µM
Newcastle disease virus
  EC50: > 81 µM
[2]
  EC50: > 81 µM
[3]
  EC50: > 81 µM
[7]
  EC90: 5.5 µM
[4]
  EC50: > 81 µM
[5]
  EC50: 1.3 µM
Human alphaherpesvirus 1
  EC50: > 81 µM
[6]
  EC50: > 81 µM

## O=C(N/C(C(=O)N1CCCCC1)=C(/Br)c1ccccc1)c1ccc(Cl)cc1
[1]
  CC50: > 67 µM
Newcastle disease virus
  EC50: > 81 µM
[2]
  EC50: > 81 µM
[3]
  EC50: > 81 µM
[7]
  EC90: 3.1 µM
[4]
  EC50: > 81 µM
[5]
  EC50: 0.54 µM
Human alphaherpesvirus 1
  EC50: > 81 µM
[6]
  EC50: > 81 µM

## O=C(N/C(C(=O)N1CCCCCCC1)=C(/Cl)c1ccccc1)c1ccccc1
HepG2 [8]
  EC50: > 75 µM

## O=C(N/C(C(=O)N1CCCCC1)=C(/Cl)c1ccccc1)c1ccc(C(F)(F)F)cc1
[1]
  CC50: > 69 µM
Newcastle disease virus
  EC50: > 81 µM
[2]
  EC50: > 81 µM
[3]
  EC50: > 81 µM
[4]
  EC50: > 81 µM
[5]
  EC50: > 69 µM
Human alphaherpesvirus 1
  EC50: > 81 µM
[6]
  EC50: > 81 µM

## Nc1nc(=O)n([C@@H]2CS[C@H](CO)O2)cc1F [EMTRICITABINE]
HepG2 [9]
  EC90: 0.3 µM
Newcastle disease virus
  EC50: > 81 µM
[2]
  EC50: > 81 µM
[3]
  EC50: > 81 µM
[4]
  EC50: > 81 µM
HepG2 [8]
  EC50: 0.03 µM
Human alphaherpesvirus 1
  EC50: > 81 µM
[6]
  EC50: > 81 µM
